Test results reported in publication PMC6273687, “Design, Synthesis and Biological Evaluation of Novel Primaquine-Cinnamic Acid Conjugates of the Amide and Acylsemicarbazide Type” (Molecules, 2016).

Tests used:
[1] = Interaction with the stable radical DPPH (reducing ability)
Procedure: To a solution of DPPH in absolute ethanol the appropriate volume of the compounds (50 or 100 µM final concentrations) dissolved in DMSO was added. The absorbance was recorded at 517 nm after 20 and 60 min at room temperature. The experiments were repeated at least in triplicate and the standard deviation of absorbance was less than 10% of the mean. NDGA was used under the same experimental conditions as a reference compound.

[2] = tested on: MCF-7 breast carcinoma cell line; test: Growth inhibition of tumor cell lines in vitro (MTT / cell counting); format: cell-based, human; details: Homo sapiens, MCF7, 72 h; MCF-7, 3 days
Procedure: (§1) The experiments were carried out on a murine lymphocytic leukemia cell line (L1210) and five human tumor cell lines: CEM, HeLa, NCI-H460, SW 620 and MCF-7. The cells were cultured as monolayers and maintained in Dulbecco′s modified Eagle medium (DMEM) supplemented with 10% fetal bovine serum (FBS), 2 mM L-glutamine, 100 U/mL penicillin and 100 μg/mL streptomycin in a humidified atmosphere with 5% CO2 at 37 °C.
(§2) The growth inhibition activity of the compounds was assessed as described previously. The cell lines were inoculated onto a series of standard 96-well microtiter plates on day 0, at 1.5 × 10^4 cells/mL (SW 620, H460) to 2.5 × 10^4 cells/mL (MCF-7, CEM and L1210), depending on the growth of the tumor cell line. Test agents were then added in ten-fold dilutions (10^−8 to 10^−4 M) and the cell cultures were then incubated for 3–4 days with 5% CO2 at 37 °C. Working dilutions of the compounds were freshly prepared on the day of testing.
(§3) After 3 (MCF-7, SW 620, NCI-H460) or 4 days (CEM, L1210), the cell growth rate was evaluated first light microscopically, then by viable cell counting and/or by performing the MTT assay, which detects dehydrogenase activity in live, not dead, cells. The absorbance (A) was measured on a microplate reader at 570 nm. The absorbance is directly proportional to the number of living, metabolically active cells. […] If however, all of the tested concentrations produce PGs exceeding the respective reference level of effect (e.g., PG value of 50), then the highest tested concentration is assigned as the default value, which is preceded by a “>” sign. Minimum two individual experiments were carried out and each test point was performed in quadruplicate.

[3] = tested on: NCI-H460 lung carcinoma cell line; test: as above; format: cell-based, human; details: Homo sapiens, 72 h; NCI-H460, 3 days
Procedure: as §1, §2, §3

[4] = tested on: SW 620 colon carcinoma cell line; test: as above; format: cell-based; details: Homo sapiens, 72 h; SW 620, 3 days
Procedure: as §1, §2, §3

[5] = tested on: L1210 murine lymphocytic leukemia cell line; test: as above; format: cell-based; details: Mus musculus, 96 h; L1210, 4 days
Procedure: as §1, §2, §3

[6] = tested on: CEM acute lymphoblastic leukemia cell line; test: as above; format: cell-based; details: Homo sapiens, 96 h, 4 days
Procedure: as §1, §2, §3

[7] = tested on: HeLa cervical carcinoma cell line; test: as above; format: cell-based; details: Homo sapiens
Procedure: as §1, §2, §3

[8] = Inhibition of linoleic acid peroxidation (AAPH-induced); details: 5 × 10^−5 M
Procedure: For initiating the lipid peroxidation free radical AAPH was used. Final solution in the UV cuvette consisted of 10 μL linoleate sodium solution (c = 16 mM), 0.93 mL phosphate buffer (c = 0.05 M), pH 7.4, thermostated at 37 °C. 50 μL AAPH solution (c = 40 mM) and 10 μL of the tested compounds were added. The experiment was performed at 37 °C under air. The oxidation of linoleic acid sodium salt was monitored at 234 nm. The assays were repeated at least in triplicate and the standard deviation of absorbance was less than 10% of the mean. Trolox was used under the same experimental conditions as a reference compound.

[9] = target: T1, soybean lipoxygenase (LOX) (Glycine max, UniProt P08170); test: LOX inhibition study in vitro; format: biochemical; details: for inhibition at 100 µM: 1 × 10^−4 M
T1 construct: purchased Sigma-Aldrich
T1 sequence (P08170 1-839): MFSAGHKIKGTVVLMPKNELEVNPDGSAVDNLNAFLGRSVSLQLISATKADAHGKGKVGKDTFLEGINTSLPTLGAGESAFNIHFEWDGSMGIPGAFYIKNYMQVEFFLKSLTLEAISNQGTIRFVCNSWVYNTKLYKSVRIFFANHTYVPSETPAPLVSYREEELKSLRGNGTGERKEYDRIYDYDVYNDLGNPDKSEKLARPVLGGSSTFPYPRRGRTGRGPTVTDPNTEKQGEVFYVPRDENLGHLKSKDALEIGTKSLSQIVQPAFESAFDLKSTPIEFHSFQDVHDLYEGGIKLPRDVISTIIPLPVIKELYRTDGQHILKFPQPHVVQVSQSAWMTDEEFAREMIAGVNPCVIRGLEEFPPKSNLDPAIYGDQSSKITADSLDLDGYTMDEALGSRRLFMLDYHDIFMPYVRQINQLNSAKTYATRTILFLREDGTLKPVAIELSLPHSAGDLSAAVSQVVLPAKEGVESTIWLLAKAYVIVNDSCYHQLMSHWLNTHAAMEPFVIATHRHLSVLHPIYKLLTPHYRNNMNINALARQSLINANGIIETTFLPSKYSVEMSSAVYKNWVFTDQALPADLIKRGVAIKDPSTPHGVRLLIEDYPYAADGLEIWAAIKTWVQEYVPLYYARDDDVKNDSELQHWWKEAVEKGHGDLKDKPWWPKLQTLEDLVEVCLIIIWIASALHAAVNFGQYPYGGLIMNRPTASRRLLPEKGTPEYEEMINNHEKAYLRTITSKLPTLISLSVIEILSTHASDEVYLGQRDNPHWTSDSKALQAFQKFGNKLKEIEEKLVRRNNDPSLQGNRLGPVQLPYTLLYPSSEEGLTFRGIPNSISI
Procedure: LOX inhibitory assay in vitro was accomplished as described previously. The test compounds (stock solutions 10 mM in DMSO) were incubated at room temperature with sodium linoleate (c = 0.1 mM) and 0.2 mL of LOX enzyme solution (1/9 × 10^−4 m/V in saline). The conversion of sodium linoleate to 13-hydroperoxylinoleic acid was measured at 234 nm and compared with the reference inhibitor. Several concentrations were used for the IC50 determination.

Row | Structure (SMILES) | DPPH-reducing ability RA (%) ([1]; 1 × 10^−4 M, 20 min) | DPPH-reducing ability RA (%) ([1]; 1 × 10^−4 M, 60 min) | IC50 [2] | IC50 [3] | IC50 [4] | IC50 [5] | IC50 [6] | IC50 [7] | LP Inhibition (%) [8] | inhibition at 100 µM [9] | DPPH-reducing ability RA (%) ([1]; 5 × 10^−5 M, 60 min) | IC50 ([9]; values in parentheses in Table 3) | DPPH-reducing ability RA (%) ([1]; 5 × 10^−5 M, 20 min)
1 | COc1cc(NC(C)CCCNC(=O)/C=C/c2ccc(Cl)cc2)c2ncccc2c1 (stereo not shown) [3g, (E)-3-(4-Chlorophenyl)-N-(4-(6-methoxyquinolin-8-ylamino)pentyl)acrylamide] | 27% | 46% | 4.3 ± 1 µM | > 100 µM | > 100 µM | 63 ± 2 µM | 20 ± 2 µM | 36 ± 16 µM | 46% | 17% |  |  | 
2 | COc1cc(NC(C)CCCNC(=O)/C=C/c2ccccc2F)c2ncccc2c1 (stereo not shown) [3h, (E)-3-(2-Fluorophenyl)-N-(4-(6-methoxyquinolin-8-ylamino)pentyl)acrylamide] |  |  | 1.1 ± 0.6 µM | > 100 µM | 0.3 ± 0.1 µM | 66 ± 5 µM | 18 ± 15 µM | 2.1 ± 2.1 µM | 66% | 10% |  |  | 
3 | COc1cc(NC(C)CCCNC(=O)/C=C/c2cccc(C(F)(F)F)c2)c2ncccc2c1 (stereo not shown) [3i] |  | 8% | 11 ± 2 µM | > 100 µM | 64 ± 41 µM | 68 ± 2 µM | 41 ± 15 µM | 112 ± 11 µM | 32% | 19% | 13% |  | 
4 | COc1cc(NC(C)CCCNC(=O)/C=C/c2ccc(C(F)(F)F)cc2)c2ncccc2c1 (stereo not shown) [3j, (E)-N-(4-(6-Methoxyquinolin-8-ylamino)pentyl)-3-(4-(trifluoromethyl)phenyl)acrylamide] | 38% | 40% | 3.9 ± 0.6 µM | > 100 µM | > 100 µM | 50 ± 18 µM | 14 ± 1 µM | 25 ± 6 µM | 77% |  |  | 50 µM | 
5 | COc1cc(NC(C)CCCNC(=O)/C=C/c2cc(C(F)(F)F)cc(C(F)(F)F)c2)c2ncccc2c1 (stereo not shown) [3k, (E)-3-(3,5-Bis(trifluoromethyl)phenyl)-N-[4-(6-methoxyquinolin-8-ylamino)pentyl]acrylamide] |  | 50% | 2.6 ± 0.5 µM | > 100 µM | > 100 µM | 92 ± 24 µM | 68 ± 29 µM | 18 ± 1 µM | 65% | 43% |  |  | 
6 | CC(Cc1ccc(O)c(O)c1)C(C)Cc1ccc(O)c(O)c1 (stereo not shown) [NDGA, nordihydroguaiaretic acid, reference compound] | 89% | 94% |  |  |  |  |  |  |  |  | 87% |  | 83%
7 | Cc1c(C)c2c(c(C)c1O)CCC(C)(C(=O)O)O2 (stereo not shown) [Trolox, 6-hydroxy-2,5,7,8-tetramethylchroman-2-carboxylic acid, reference compound] |  |  |  |  |  |  |  |  | 88% |  |  |  | 
